# Key:
# A549 cells = assay: Propidium iodide uptake, flow cytometry; type: cell-based, human; conditions: for PI uptake versus untreated control cells: 20 μM for 12 h; for effect of N-acetylcysteine pretreatment on induced PI uptake: N-acetylcysteine 3 mM for 1 h; for effect of necrostatin-1 on mediated PI uptake: necrostatin-1 60 μM
# Experimental: Intracellular ROS production and mitochondrial membrane depletion contribute to necroptosis. Cells undergoing necroptosis display necrosis-like morphological features such as loss of cell membrane integrity, increase in organelle and cell volume (oncosis), and intact nuclear membrane. To further test whether 1- and 2-treatment can trigger necroptosis, Hoechst 33258/propidium iodide (PI) double staining was carried out to determine nuclear membrane morphology and integrity. Hoechst 33258 is a DNA minor groove binder that is routinely used to visualize the nucleus without the need for cell permeabilization. When used without cell permeabilization agents, PI stains the nuclei of necrotic cells. Early-stage apoptotic and normal cells maintain cell membrane integrity and thus are not stained by PI. A549 cells were treated with 1 and 2 (20 μM for 12 h), incubated with Hoechst 33258 and PI, and imaged using a fluorescence microscope.
# Propidium Iodide Uptake. Untreated and treated A549 cells (1.5×10^6 cells/well) grown in six-well plates were washed with PBS (1 mL×3), harvested, incubated with PI (5 μM), and analyzed by using the FACSCalibur-HTS flow cytometer (BD Biosciences) (20 000 events per sample were acquired). The FL2 channel was used to assess intracellular PI uptake. Cell populations were analyzed using the FlowJo software (Tree Star).
# C57BL/6 mice = assay: In vivo acute toxicity in mice; conditions: single i.p. doses 3-36 mg/kg in saline, monitored 6 days
# Experimental: In Vivo Toxicity and Stability in Whole Human Blood. Given the impressive in vitro data acquired for 1 and 2, an in vivo study was conducted with C57BL/6 mice to determine acute toxicity and possible side effects. Single doses of 1 and 2 (3, 7, 11,15, 20, and 36 mg/kg) in saline were administered by intraperitoneal injection. The mice were then monitored for signs of pain, distress, and weight loss for 6 days post-treatment. […] The pharmacological toxicity profile of 1 and 2 is very appealing in terms of further preclinical studies.
# [1] = Stability in whole human blood (octanol extraction, GFAAS); type: in vitro ADME; conditions: 500 μM, fresh human blood, 37° C.
# Experimental: The stability of biologically active compounds in human blood is vitally important for their potential application in clinical settings. The stability of 1 in whole human blood using a recently developed protocol was investigated. The method exploits the ability of octanol to extract hydrophobic metal complexes such as 1. The rhenium complex 1 (500 μM) was incubated with fresh human blood at 37° C., and aliquots were extracted into octanol at various time points. The amount of 1 in the octanol extracts (corresponding to unreacted 1) was measured by graphite furnace atomic absorption spectroscopy (GFAAS).
compound,measurement,setting,value
"C[O][Re](=[O])([Cl])[Cl].c1ccc(-c2ccnc3c2ccc2c(-c4ccccc4)ccnc23)cc1 [Compound 1, [ReO(OMe)(4,7-diphenyl-1,10-phenanthroline)-Cl2]]",PI uptake versus untreated control cells,A549 cells,higher PI uptake
same,effect of N-acetylcysteine pretreatment on induced PI uptake,A549 cells,significantly decreased
same,effect of necrostatin-1 on mediated PI uptake,A549 cells,could block
same,"acute toxicity in mice, gauged by weight loss",C57BL/6 mice,no toxicity
same,half-life in human blood,[1],29.1 min
"C[O][Re-2]1(=[O])([Cl])([Cl])[n+]2cc(C)c(C)c3ccc4c(C)c(C)c[n+]1c4c32 [Compound 2, [ReO(OMe)(3,4,7,8-tetramethyl-1,10-phenanthroline)Cl2]]",PI uptake versus untreated control cells,A549 cells,higher PI uptake
same,effect of N-acetylcysteine pretreatment on induced PI uptake,A549 cells,significantly decreased
same,effect of necrostatin-1 on mediated PI uptake,A549 cells,could block
same,"acute toxicity in mice, gauged by weight loss",C57BL/6 mice,no toxicity
